Tests used:
AKT2 = molecular target: T1, AKT2 (Homo sapiens, UniProt P31751); test: Inhibition specificity, AKT2; assay type: biochemical; conditions: 5000 nM, average of two tests; read-out: Average Inhibition Rate (%) AKT2
T1 construct: purchased INVITROGEN

corneal angiogenesis = test: Rabbit corneal chemical burn model; assay type: in vivo, white rabbits; conditions: 100 uM subconjunctival injection then drops twice a day, 7 days
Procedure: This test tested in total 5 white rabbits who were 5-6 month old. After narcotizing, in the center of the cornea, the right eye was treated with a 6 mm diameter of round filter paper which was soaked with 0.1M NaOH, induced for 3 min to produce chemical burn modeling.

MAPK3 = molecular target: T2, MAPK3 (Homo sapiens, UniProt P27361); test: Inhibition specificity, MAPK3; assay type: biochemical; conditions: 5000 nM, average of two tests; read-out: Average Inhibition Rate (%) MAPK3
T2 construct: purchased INVITROGEN

SRC = molecular target: T3, SRC (Homo sapiens, UniProt P12931); test: Inhibition specificity, SRC; assay type: biochemical; conditions: 5000 nM, average of two tests; read-out: Average Inhibition Rate (%) SRC
T3 construct: purchased INVITROGEN

CDK2 = molecular target: T4, CDK2 (Homo sapiens, UniProt P24941); test: Inhibition specificity, CDK2; assay type: biochemical; conditions: 5000 nM, average of two tests; read-out: Average Inhibition Rate (%) CDK2
T4 construct: purchased UPSTATE

AURORA-B = molecular target: T5, AURORA-B (Homo sapiens, UniProt Q96GD4); test: Inhibition specificity, AURORA-B; assay type: biochemical; conditions: 5000 nM, average of two tests; read-out: Average Inhibition Rate (%) AURORA-B
T5 construct: purchased CARNA

P38-α = molecular target: T6, P38-α (Homo sapiens, UniProt Q16539); test: Inhibition specificity, P38-α; assay type: biochemical; conditions: 5000 nM, average of two tests; read-out: Average Inhibition Rate (%) P38-α
T6 construct: purchased AMPHORA

CHEK1 = molecular target: T7, CHEK1 (Homo sapiens, UniProt O14757); test: Inhibition specificity, CHEK1; assay type: biochemical; conditions: 5000 nM, average of two tests; read-out: Average Inhibition Rate (%) CHEK1
T7 construct: purchased CARNA

GSK-3-β = molecular target: T8, GSK-3-β (Homo sapiens, UniProt P49841); test: Inhibition specificity, GSK-3-β; assay type: biochemical; conditions: 5000 nM, average of two tests; read-out: Average Inhibition Rate (%) GSK-3-β
T8 construct: purchased UPSTATE

MEK1 = molecular target: T9, MEK1 (Homo sapiens, UniProt Q02750); test: Inhibition specificity, MEK1; assay type: biochemical; conditions: 5000 nM, average of two tests; read-out: Average Inhibition Rate (%) MEK1
T9 construct: purchased UPSTATE

SYK = molecular target: T10, SYK (Homo sapiens, UniProt P43405); test: Inhibition specificity, SYK; assay type: biochemical; conditions: 5000 nM, average of two tests; read-out: Average Inhibition Rate (%) SYK
T10 construct: purchased BPS

ROCK1 = molecular target: T11, ROCK1 (Homo sapiens, UniProt Q13464); test: Inhibition specificity, ROCK1; assay type: biochemical; conditions: 5000 nM, average of two tests; read-out: Average Inhibition Rate (%) ROCK1
T11 construct: purchased CARNA

JAK2 = molecular target: T12, JAK2 (Homo sapiens, UniProt O60674); test: Inhibition specificity, JAK2; assay type: biochemical; conditions: 5000 nM, average of two tests; read-out: Average Inhibition Rate (%) JAK2
T12 construct: purchased INVITROGEN

PDGFR-β = molecular target: T13, PDGFR-β (Homo sapiens, UniProt P09619); test: Inhibition specificity, PDGFR-β; assay type: biochemical; conditions: 5000 nM, average of two tests; read-out: Average Inhibition Rate (%) PDGFR-β
T13 construct: purchased Upstate

VEGFR2 (KDR) = molecular target: T14, VEGFR2 (KDR) (Homo sapiens, UniProt P35968); test: Kinase inhibition dosage effect, KDR; assay type: biochemical; conditions: for IC50: [ATP] 80 μM, 3 hr; for Hill KDR: dose-effect curve fit
T14 construct: purchased Invitrogen

[1] = system: vessel development of the FLK1-GFP transgenic danio rerio; test: Inhibition test on vascular development of Danio rerio; assay type: in vivo; conditions: for inhibition at 0.1 µM / inhibition at 1 µM / inhibition at 5 µM / inhibition at 10 µM / inhibition at 20 µM / inhibition at 40 µM / inhibition at 100 µM: Danio rerio, after 24 hours, n = 5, read-out: inhibition rate on the development of vertebral vessel; for inhibition at 0.1 µM: 100 nM; for inhibition effect on the vessel development of the danio rerio (in words): Table 1 and FIG. 7
Procedure: Female fish can spawn 200-300 […], and the fertilization and embryonic development processes are conducted in vitro. They can grow up within 24 hours, and the embryo is transparent, which is suitable for observing the change of intracorporal organs and tissues. These characteristics make the danio rerio become to be one of the five fish laboratory animals accepted by the international organization for standardization. Currently, the danio rerio is widely used in human disease studies, especially used in cardiovascular system studies. The danio rerio can be used for screening the influence of small molecular compounds on angiogenesis. Experimental Method: This experiment uses FLK1-GFP transgenic danio rerio as an animal model which is generally used for screening the influence of compounds on angiogenesis. Vessel can be in vivo observed under fluorescence microscope (Suk-Won Jin, 2005, Development). The selected embryo of the postnatal FLK1-GFP transgenic danio rerio was placed into a culture dish and incubated for 3-5 days in an incubator at 28° C. […] Examine the developmental condition of the vertebral vessel after 24 hours and take photo by use of the fluorescence microscope.

MET = molecular target: T15, MET (Homo sapiens, UniProt P08581); test: Inhibition specificity, MET; assay type: biochemical; conditions: 5000 nM, average of two tests; read-out: Average Inhibition Rate (%) MET
T15 construct: purchased INVITROGEN

BRAF = molecular target: T16, BRAF (Homo sapiens, UniProt P15056); test: Inhibition specificity, BRAF; assay type: biochemical; conditions: 5000 nM, average of two tests; read-out: Average Inhibition Rate (%) BRAF
T16 construct: purchased UPSTATE

FGFR2 = molecular target: T17, FGFR2 (Homo sapiens, UniProt P21802); test: Inhibition specificity, FGFR2; assay type: biochemical; conditions: 5000 nM, average of two tests; read-out: Average Inhibition Rate (%) FGFR2
T17 construct: purchased CARNA

EGFR = EGFR (Homo sapiens, UniProt P00533); test: Inhibition specificity, EGFR; assay type: biochemical; conditions: 5000 nM, average of two tests; read-out: Average Inhibition Rate (%) EGFR
KIT = molecular target: T18, KIT (Homo sapiens, UniProt P10721); test: Inhibition specificity, KIT; assay type: biochemical; conditions: 5000 nM, average of two tests; read-out: Average Inhibition Rate (%) KIT
T18 construct: purchased INVITROGEN

T14 sequence (P35968 20-1356, species assumed): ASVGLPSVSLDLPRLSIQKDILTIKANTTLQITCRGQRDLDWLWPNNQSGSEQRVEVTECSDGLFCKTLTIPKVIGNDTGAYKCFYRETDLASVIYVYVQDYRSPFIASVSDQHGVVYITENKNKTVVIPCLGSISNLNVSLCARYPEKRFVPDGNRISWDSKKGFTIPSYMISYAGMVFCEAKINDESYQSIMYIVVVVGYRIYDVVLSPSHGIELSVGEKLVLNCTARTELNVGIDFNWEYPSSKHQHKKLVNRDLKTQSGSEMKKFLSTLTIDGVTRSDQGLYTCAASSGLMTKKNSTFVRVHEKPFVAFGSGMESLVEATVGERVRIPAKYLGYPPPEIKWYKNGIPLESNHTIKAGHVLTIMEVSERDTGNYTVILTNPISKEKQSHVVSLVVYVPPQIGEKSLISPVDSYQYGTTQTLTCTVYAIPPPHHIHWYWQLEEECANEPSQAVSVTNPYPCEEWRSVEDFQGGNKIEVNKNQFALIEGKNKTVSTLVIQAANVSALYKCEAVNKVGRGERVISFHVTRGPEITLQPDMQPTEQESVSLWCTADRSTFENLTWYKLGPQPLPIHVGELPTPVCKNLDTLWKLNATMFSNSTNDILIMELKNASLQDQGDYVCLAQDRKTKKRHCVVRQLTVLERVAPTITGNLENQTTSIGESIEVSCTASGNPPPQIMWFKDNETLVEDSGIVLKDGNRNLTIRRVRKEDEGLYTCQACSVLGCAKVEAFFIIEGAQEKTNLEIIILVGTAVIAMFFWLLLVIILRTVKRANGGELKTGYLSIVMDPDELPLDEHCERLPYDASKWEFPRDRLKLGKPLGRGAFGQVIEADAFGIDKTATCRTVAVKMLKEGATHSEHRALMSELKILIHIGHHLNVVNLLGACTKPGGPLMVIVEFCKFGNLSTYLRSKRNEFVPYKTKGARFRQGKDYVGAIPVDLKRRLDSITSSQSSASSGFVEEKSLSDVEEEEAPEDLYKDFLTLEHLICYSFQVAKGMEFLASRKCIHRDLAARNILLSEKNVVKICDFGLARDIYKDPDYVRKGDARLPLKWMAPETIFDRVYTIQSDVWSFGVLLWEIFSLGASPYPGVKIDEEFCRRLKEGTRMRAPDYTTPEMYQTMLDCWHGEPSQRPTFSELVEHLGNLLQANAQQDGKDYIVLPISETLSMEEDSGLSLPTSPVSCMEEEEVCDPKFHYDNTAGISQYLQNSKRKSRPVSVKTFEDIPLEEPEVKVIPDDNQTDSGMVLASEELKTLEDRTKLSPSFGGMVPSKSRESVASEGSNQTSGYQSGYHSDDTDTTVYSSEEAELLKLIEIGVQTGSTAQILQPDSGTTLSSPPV
T12 sequence (O60674 whole entry, species assumed): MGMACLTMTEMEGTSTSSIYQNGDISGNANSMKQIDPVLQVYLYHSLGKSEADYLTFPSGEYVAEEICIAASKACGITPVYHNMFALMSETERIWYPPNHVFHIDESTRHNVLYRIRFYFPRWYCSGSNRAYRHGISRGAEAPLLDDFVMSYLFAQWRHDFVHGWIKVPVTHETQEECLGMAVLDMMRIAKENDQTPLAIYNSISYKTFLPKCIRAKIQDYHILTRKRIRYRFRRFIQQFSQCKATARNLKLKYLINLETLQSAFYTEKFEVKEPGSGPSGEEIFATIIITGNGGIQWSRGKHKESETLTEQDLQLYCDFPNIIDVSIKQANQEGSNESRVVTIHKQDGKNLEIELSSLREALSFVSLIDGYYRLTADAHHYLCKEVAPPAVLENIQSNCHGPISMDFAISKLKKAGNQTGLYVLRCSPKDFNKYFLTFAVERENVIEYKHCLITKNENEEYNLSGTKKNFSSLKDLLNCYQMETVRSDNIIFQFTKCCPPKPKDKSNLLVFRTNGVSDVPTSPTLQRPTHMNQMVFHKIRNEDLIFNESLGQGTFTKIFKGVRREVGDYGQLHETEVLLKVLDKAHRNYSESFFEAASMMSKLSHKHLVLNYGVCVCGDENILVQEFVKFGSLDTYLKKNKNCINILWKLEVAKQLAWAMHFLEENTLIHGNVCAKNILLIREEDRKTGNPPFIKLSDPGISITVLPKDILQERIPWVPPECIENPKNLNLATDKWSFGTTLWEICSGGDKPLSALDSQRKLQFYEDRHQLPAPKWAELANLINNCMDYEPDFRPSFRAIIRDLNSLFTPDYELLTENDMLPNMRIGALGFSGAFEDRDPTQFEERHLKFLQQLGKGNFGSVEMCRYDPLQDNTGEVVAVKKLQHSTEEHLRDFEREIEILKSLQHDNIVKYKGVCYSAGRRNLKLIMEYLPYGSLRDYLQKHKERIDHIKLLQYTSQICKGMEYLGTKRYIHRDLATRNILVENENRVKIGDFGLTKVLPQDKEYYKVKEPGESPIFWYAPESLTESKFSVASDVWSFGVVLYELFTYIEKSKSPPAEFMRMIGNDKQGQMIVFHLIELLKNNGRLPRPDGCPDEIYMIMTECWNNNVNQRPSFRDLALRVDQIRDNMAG
T3 sequence (P12931 whole entry, species assumed): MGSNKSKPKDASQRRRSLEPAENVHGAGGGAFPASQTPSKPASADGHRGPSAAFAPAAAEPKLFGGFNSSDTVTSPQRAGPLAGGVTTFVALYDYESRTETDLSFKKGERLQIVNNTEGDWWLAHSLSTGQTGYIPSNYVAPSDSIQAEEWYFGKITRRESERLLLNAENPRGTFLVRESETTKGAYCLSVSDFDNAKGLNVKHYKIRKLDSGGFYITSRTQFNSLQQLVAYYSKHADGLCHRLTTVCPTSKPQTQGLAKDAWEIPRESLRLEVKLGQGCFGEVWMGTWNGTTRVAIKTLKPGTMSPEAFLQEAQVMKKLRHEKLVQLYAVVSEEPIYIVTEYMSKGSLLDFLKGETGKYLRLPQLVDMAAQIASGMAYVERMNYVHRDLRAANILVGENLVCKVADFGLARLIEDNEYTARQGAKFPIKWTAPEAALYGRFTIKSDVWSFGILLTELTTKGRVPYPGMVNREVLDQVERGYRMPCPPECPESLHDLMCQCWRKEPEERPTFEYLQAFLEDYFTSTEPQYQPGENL
T1 sequence (P31751 whole entry, species assumed): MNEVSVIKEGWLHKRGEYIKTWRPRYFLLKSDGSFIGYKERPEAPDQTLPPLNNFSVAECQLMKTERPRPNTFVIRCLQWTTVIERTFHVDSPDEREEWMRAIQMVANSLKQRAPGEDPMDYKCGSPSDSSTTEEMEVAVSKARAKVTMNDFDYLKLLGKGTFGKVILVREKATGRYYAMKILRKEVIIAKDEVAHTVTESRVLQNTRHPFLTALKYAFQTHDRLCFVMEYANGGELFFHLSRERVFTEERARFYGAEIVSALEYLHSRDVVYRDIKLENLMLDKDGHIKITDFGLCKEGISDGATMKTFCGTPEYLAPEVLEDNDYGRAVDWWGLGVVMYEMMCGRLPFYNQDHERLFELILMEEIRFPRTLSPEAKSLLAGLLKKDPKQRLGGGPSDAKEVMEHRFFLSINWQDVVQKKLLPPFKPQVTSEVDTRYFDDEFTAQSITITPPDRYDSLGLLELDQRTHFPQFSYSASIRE
T15 sequence (P08581 25-1390): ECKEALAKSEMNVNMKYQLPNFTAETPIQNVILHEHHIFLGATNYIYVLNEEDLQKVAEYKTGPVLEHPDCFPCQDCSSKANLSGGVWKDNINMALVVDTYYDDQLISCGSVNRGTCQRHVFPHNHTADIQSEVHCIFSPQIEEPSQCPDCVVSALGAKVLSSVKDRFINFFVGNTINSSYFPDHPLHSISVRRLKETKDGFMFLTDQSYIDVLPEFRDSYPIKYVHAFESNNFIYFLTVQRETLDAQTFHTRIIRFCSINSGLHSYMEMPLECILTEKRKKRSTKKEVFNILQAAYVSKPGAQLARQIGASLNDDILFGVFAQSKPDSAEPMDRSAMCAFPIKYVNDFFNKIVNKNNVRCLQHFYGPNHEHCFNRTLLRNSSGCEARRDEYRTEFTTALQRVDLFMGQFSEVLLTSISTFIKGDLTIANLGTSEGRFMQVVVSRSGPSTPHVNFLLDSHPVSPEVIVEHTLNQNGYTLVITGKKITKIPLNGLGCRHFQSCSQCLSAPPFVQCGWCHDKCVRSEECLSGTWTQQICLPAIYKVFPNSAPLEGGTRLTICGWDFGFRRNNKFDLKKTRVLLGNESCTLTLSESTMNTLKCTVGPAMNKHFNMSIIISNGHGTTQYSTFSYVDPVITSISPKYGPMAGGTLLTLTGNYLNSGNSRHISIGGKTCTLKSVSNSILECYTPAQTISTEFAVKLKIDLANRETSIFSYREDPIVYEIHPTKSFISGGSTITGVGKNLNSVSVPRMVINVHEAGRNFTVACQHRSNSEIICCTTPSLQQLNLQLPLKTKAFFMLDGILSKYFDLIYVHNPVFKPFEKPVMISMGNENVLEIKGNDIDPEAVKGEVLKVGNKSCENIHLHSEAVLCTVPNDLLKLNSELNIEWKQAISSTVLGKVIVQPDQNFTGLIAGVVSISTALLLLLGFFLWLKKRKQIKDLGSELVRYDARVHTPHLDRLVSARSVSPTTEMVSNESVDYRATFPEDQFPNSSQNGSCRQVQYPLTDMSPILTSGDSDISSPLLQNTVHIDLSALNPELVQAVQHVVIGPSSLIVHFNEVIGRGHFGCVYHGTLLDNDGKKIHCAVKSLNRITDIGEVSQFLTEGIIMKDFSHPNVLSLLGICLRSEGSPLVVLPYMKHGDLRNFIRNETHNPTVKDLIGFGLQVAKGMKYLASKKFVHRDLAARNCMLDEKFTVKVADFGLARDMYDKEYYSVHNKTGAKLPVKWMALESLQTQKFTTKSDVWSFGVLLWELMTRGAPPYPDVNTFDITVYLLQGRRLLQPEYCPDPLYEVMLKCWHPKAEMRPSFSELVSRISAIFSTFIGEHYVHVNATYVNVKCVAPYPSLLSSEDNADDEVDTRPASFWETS

Nc1cc(Oc2ccc3c(C(=O)Nc4cccc(C(F)(F)F)c4)cccc3n2)ncn1 [Compound 2-1]
inhibition at 5 µM (AKT2): 1.35%
effect on corneal angiogenesis (in words, FIG. 12) (corneal angiogenesis): obviously reduces corneal angiogenesis
inhibition at 5 µM (MAPK3): 1.44%
inhibition at 5 µM (SRC): ~21%
inhibition at 5 µM (CDK2): 3.75%
inhibition at 5 µM (AURORA-B): ~31%
inhibition at 5 µM (P38-α): 16.9%
inhibition at 5 µM (CHEK1): 2.54%
inhibition at 5 µM (GSK-3-β): -0.57%
inhibition at 5 µM (MEK1): 1.06%
inhibition at 5 µM (SYK): -2.15%
inhibition at 5 µM (ROCK1): 2.63%
inhibition at 5 µM (JAK2): ~21%
inhibition at 5 µM (PDGFR-β): ~71%
inhibition activity on KDR (in words) (VEGFR2 (KDR)): good inhibition activity
IC50 (VEGFR2 (KDR)): 0.0277 µM
Inhibition Rate on KDR (%) (VEGFR2 (KDR); concentration 0.0002823 (uM)): 2.75%
Inhibition Rate on KDR (%) (VEGFR2 (KDR); concentration 0.0008468 (uM)): 0.61%
Inhibition Rate on KDR (%) (VEGFR2 (KDR); concentration 0.0025403 (uM)): 7.27%
Inhibition Rate on KDR (%) (VEGFR2 (KDR); concentration 0.0076208 (uM)): 20.59%
Inhibition Rate on KDR (%) (VEGFR2 (KDR); concentration 0.0228624 (uM)): 45.65%
Inhibition Rate on KDR (%) (VEGFR2 (KDR); concentration 0.0685871 (uM)): 71.24%
Inhibition Rate on KDR (%) (VEGFR2 (KDR); concentration 0.2057613 (uM)): 84.37%
Inhibition Rate on KDR (%) (VEGFR2 (KDR); concentration 0.6172840 (uM)): 91.13%
Inhibition Rate on KDR (%) (VEGFR2 (KDR); concentration 1.8518519 (uM)): 94.18%
Inhibition Rate on KDR (%) (VEGFR2 (KDR); concentration 5.5555556 (uM)): 95.30%
Inhibition Rate on KDR (%) (VEGFR2 (KDR); concentration 16.6666667 (uM)): 94.60%
Inhibition Rate on KDR (%) (VEGFR2 (KDR); concentration 50 (uM)): 94.91%
Hill KDR (VEGFR2 (KDR)): 1.066
inhibition at 0.1 µM [1]: 10%
inhibition at 1 µM [1]: 50%
inhibition at 5 µM [1]: 100%
inhibition at 10 µM [1]: 100%
inhibition at 20 µM [1]: 100%
inhibition at 40 µM [1]: 100%
inhibition at 100 µM [1]: 100%
inhibition effect on the vessel development of the danio rerio (in words) [1]: have inhibition effect on the vessel development of the danio rerio
inhibition at 5 µM (MET): 3.83%
inhibition at 5 µM (BRAF): 4.11%
inhibition at 5 µM (FGFR2): ~36%
inhibition at 5 µM (EGFR): 5.35%
inhibition at 5 µM (KIT): ~72%

Nc1nccc(Oc2ccc3c(C(=O)Nc4cccc(C(F)(F)F)c4)cccc3n2)n1 [Compound 2-2]
inhibition at 5 µM (AKT2): -1.2%
effect on corneal angiogenesis (in words, FIG. 12) (corneal angiogenesis): obviously reduces corneal angiogenesis
inhibition at 5 µM (MAPK3): 1.12%
inhibition at 5 µM (SRC): ~65%
inhibition at 5 µM (CDK2): 2.02%
inhibition at 5 µM (AURORA-B): 13.6%
inhibition at 5 µM (P38-α): ~80%
inhibition at 5 µM (CHEK1): 0.695%
inhibition at 5 µM (GSK-3-β): 0.555%
inhibition at 5 µM (MEK1): 4.96%
inhibition at 5 µM (SYK): -5.87%
inhibition at 5 µM (ROCK1): 1.39%
inhibition at 5 µM (JAK2): 7.83%
inhibition at 5 µM (PDGFR-β): ~97%
inhibition activity on KDR (in words) (VEGFR2 (KDR)): good inhibition activity
IC50 (VEGFR2 (KDR)): 0.00731 µM
Inhibition Rate on KDR (%) (VEGFR2 (KDR); concentration 0.0002823 (uM)): 5.09%
Inhibition Rate on KDR (%) (VEGFR2 (KDR); concentration 0.0008468 (uM)): 11.82%
Inhibition Rate on KDR (%) (VEGFR2 (KDR); concentration 0.0025403 (uM)): 25.59%
Inhibition Rate on KDR (%) (VEGFR2 (KDR); concentration 0.0076208 (uM)): 49.36%
Inhibition Rate on KDR (%) (VEGFR2 (KDR); concentration 0.0228624 (uM)): 78.25%
Inhibition Rate on KDR (%) (VEGFR2 (KDR); concentration 0.0685871 (uM)): 90.14%
Inhibition Rate on KDR (%) (VEGFR2 (KDR); concentration 0.2057613 (uM)): 92.95%
Inhibition Rate on KDR (%) (VEGFR2 (KDR); concentration 0.6172840 (uM)): 94.82%
Inhibition Rate on KDR (%) (VEGFR2 (KDR); concentration 1.8518519 (uM)): 97.30%
Inhibition Rate on KDR (%) (VEGFR2 (KDR); concentration 5.5555556 (uM)): 96.50%
Inhibition Rate on KDR (%) (VEGFR2 (KDR); concentration 16.6666667 (uM)): 94.47%
Inhibition Rate on KDR (%) (VEGFR2 (KDR); concentration 50 (uM)): 95.99%
Hill KDR (VEGFR2 (KDR)): 1.175
inhibition at 0.1 µM [1]: 50%
inhibition at 1 µM [1]: 100%
inhibition at 5 µM [1]: 100%
inhibition at 10 µM [1]: 100%
inhibition at 20 µM [1]: 100%
inhibition at 40 µM [1]: 100%
inhibition at 100 µM [1]: 100%
inhibition effect on the vessel development of the danio rerio (in words) [1]: have inhibition effect on the vessel development of the danio rerio
inhibition at 5 µM (MET): 2.46%
inhibition at 5 µM (BRAF): 37.4%
inhibition at 5 µM (FGFR2): > 61%
inhibition at 5 µM (EGFR): -0.625%
inhibition at 5 µM (KIT): ~92%

Source: patent US9540381B2, “Anti-angiogenesis compound, intermediate and use thereof” (Guangzhou KangRui Biological Pharmaceutical Technology Co., …, priority 2013, dated 2017)
